Laboratory results taken from patent publication EP4353088A1, “COMPOSITIONS OR COMBINED PREPARATIONS OF ESSENTIAL OILS AND L-CARNITINE” (Servicio Andaluz de Salud, priority 2022, dated 2024).

Key:
[1] = system: SCFA species; assay: SCFA species in feces (GC-FID) of humanized gnotobiotic mice; type: in vivo; details: L-carnitine (0.02%, w/v) in drinking water for 40 days; carnitine group vs control group
Procedure: (§1) A humanized gnotobiotic mouse model was developed through the fecal microbiota transplantation of human feces into germ-free mice. Prior to the transplantation procedure, 18-week-old mice (n = 40) were orally treated by gavage with 200 µL of antibiotic cocktail composed of vancomycin (5 mg mL^-1), neomycin, metronidazole and ampicillin 155 (10 mg mL^-1) in order to deplete the bacterial content. An all-bacteria qPCR was performed with universal 16S rRNA primers that detect a broad range of bacterial species to verify complete absence of detectable bacteria in the feces.
(§2) Then, mice received a fecal microbiota transplantation from a selection of patients to recolonize the gastrointestinal tract, as previously described. Specifically, three patients with IHD, T2DM and high plasma levels of TMAO were eligible for feces donation. Fresh fecal samples were suspended in sterile phosphate buffered saline (PBS) and glycerol was added at 10 % (v/v) final concentration; then, samples were aliquoted into cryotubes and immediately stored at -80 °C. At the moment of the transplantation, aliquot samples from these patients were thawed in ice and mixed in equal quantities as a sample pool to guarantee that every mouse received a similar microbiota load. […]

[2] = system: gut microbiota; assay: Fecal microbiota analysis by 16S rRNA gene sequencing in humanized gnotobiotic mice; type: in vivo
Procedure: A humanized gnotobiotic mouse model was developed through the fecal microbiota transplantation of human feces into germ-free mice. Prior to the transplantation procedure, 18-week-old mice (n = 40) were orally treated by gavage with 200 μL of antibiotic cocktail composed of vancomycin (5 mg mL^-1), neomycin, metronidazole and ampicillin 155 (10 mg mL^-1) in order to deplete the bacterial content. An all-bacteria qPCR was performed with universal 16S rRNA primers that detect a broad range of bacterial species to verify complete absence of detectable bacteria in the feces. Then, mice received a fecal microbiota transplantation from a selection of patients to recolonize the gastrointestinal tract, as previously described. Specifically, three patients with IHD, T2DM and high plasma levels of TMAO were eligible for feces donation. Fresh fecal samples were suspended in sterile phosphate buffered saline (PBS) and glycerol was added at 10 % (v/v) final concentration; then, samples were aliquoted into cryotubes and immediately stored at -80 °C. At the moment of the transplantation, aliquot samples from these patients were thawed in ice and mixed in equal quantities as a sample pool to guarantee that every mouse received a similar microbiota load. The sample pool was centrifuged for 2 minutes at 2,800 xg, and the supernatant was transferred to mice by oral gavage for three consecutive days according to previously published protocols. Mice were moved to clean cages every two days to minimize the coprophagia and to prevent reinoculation from old feces. […]

[3] = system: cytokines and chemokines; assay: Cytokines and chemokines in plasma (ProcartaPlex 26-Plex); type: in vivo, mice; details: L-carnitine (0.02%, w/v) in drinking water for 40 days
Procedure: as §1, §2

[4] = system: TMA and TMAO; assay: L-carnitine, TMA and TMAO levels in plasma (LC-MS) of humanized gnotobiotic mice; type: in vivo; details: L-carnitine (0.02%, w/v) in drinking water for 40 days; carnitine group vs control group
Procedure: as §1
as §2, with “load. The sample pool was centrifuged for 2 minutes at 2,800 xg, and the supernatant was transferred to mice by oral gavage for three consecutive days according to previously published protocols. Mice were moved to clean cages every two days to minimize the coprophagia and to prevent reinoculation from old feces.” for “load.”

[5] = system: protein carbonyls and pentosidine; assay: Protein carbonyls (AAS, GGS) and pentosidine in plasma (fluorescent HPLC); type: in vivo, mice; details: L-carnitine (0.02%, w/v) in drinking water for 40 days; carnitine group vs control group
Procedure: as §1
as §2, with “load. The sample pool was centrifuged for 2 minutes at 2,800 xg, and the supernatant was transferred to mice by oral gavage for three consecutive days according to previously published protocols. Mice were moved to clean cages every two days to minimize the coprophagia and to prevent reinoculation from old feces.” for “load.”

[6] = system: cardiovascular disease markers; assay: Cardiovascular markers in plasma (Mouse CVD Magnetic Bead Panel 1); type: in vivo, mice; details: L-carnitine (0.02%, w/v) in drinking water for 40 days; carnitine group vs control group
Procedure: as §1, §2

[7] = genus level, fecal samples, among control, carnitine, savory, parsley and rosemary groups, 40 days

For `C[N+](C)(C)C[C@H](O)CC(=O)[O-]` [carnitine, L-carnitine], the “fecal levels of SCFA species (acetic, butyric and propionic acids)” value [1] was “no significant differences”, the “relative abundance at the family and genus levels” value ([2]; L-carnitine (0.02%, w/v) in drinking water for 40 days, carnitine group vs control group) was “no differences” and the “Chao1 index (alpha diversity)” value [2, 7] was “no significant differences”. The “Shannon index (alpha diversity)” value [2, 7] was “no significant differences”, the “plasma IFNγ levels” value ([3]; carnitine group vs control group) was “significant increase” and the “plasma CXCL10 levels” value ([3]; vs control group) was “significant increase”. For the same compound, the “plasma L-carnitine levels” value [4] was “significant increase”, the “plasma TMA levels” value [4] was “significant increase” and the “plasma TMAO levels” value [4] was “no significant differences”. The “plasma levels of AAS” value [5] was “no significant effects”, the “plasma levels of GGS” value [5] was “no significant effects” and the plasma pentosidine levels [5] was “no differences”. For the same compound, the “plasma cardiovascular disease markers (Se-selectin, sICAM-1, Precam-1, sP-selectin, PAI-1 and thrombomodulin)” value [6] was “no significant differences”.
